According to patent US12071624B2, “Antisense oligonucleotide targeting ARL4C molecule, and nucleic acid drug using antisense oligonucleotide” (OSAKA UNIVERSITY, priority 2018, dated 2024):

Key:
[1] = tested on: S2-CP8/Luc cells; assay: Xenograft orthotopic transplantation model using pancreatic cancer cells; format: in vivo, mouse; conditions: twice a week from 3 days after transplantation, 28 days after transplantation
Method: Assay based on the xenograft orthotopic transplantation model using pancreatic cancer cells was performed by arranging the method described in the literature (Kim M P. et. al., Nat Protoc 2009; 4: 1670-80). Specifically, S2-CP8/Luc cells (5×10^5 cells) were suspended in 100 μl of Hanks' Balanced Salt Solution (HBSS) containing 50% matrigel, and were orthotopically transplanted in the central part of the pancreas using a 27 G needle. Three days after transplantation, the mice were divided into two groups, a control ASO-administered group (n=6) and an ARL4C ASO-administered group (n=7). […] Tumors were quantified once a week using the IVIS imaging system (Xenogen Corp.). In the in-vivo imaging, 100 μl of VivoGlo luciferin (30 mg/ml) was intraperitoneally administered, and bioluminescence images were recorded eight minutes after the administration. The quantification of the tumors was carried out in the following manner: a region of interest (ROI) was selected, and a radiance value of the same was measured using Living Image 4.3.1 Software (Caliper Life Science). The mice were euthanized 28 days after the transplantation, tumor weights and the number of mesenteric lymph nodes (lymph nodes of 1 mm or larger in diameter) were determined, and histological analysis was carried out. […]

[2] = tested on: A549/Luc cells; assay: Xenograft orthotopic transplantation model using lung cancer cells; format: in vivo, mouse
Method: Eight-week-old male nude mice (BALB/cAJcl-nu/nu, CLEA Japan, Inc.) were intraperitoneally injected with medetomidine (0.75 mg/kg), midazolam (4 mg/kg), and butorphanol (5 mg/kg) so as to be anesthetized. The xenograft orthotopic transplantation model was formed by transplanting human lung cancer cells into the left lungs of mice in the following order. A549/Luc cells (approximately 2×10^6 cells) were suspended in 10 μl of PBS (phosphate buffered saline) and 10 μl of Matrigel (BD Biosciences, San Jose, CA, USA), and a 29 G needle attached to a 0.5 ml insulin syringe (BD Biosciences, San Jose, CA, USA) was used to inject the same through the intercostal space to a depth of 2 mm in the left lung. The incision in the skin was closed with a 5-0 polypropylene suture, and the mice were rested on a warm carpet until they were fully recovered.
One week after the tumor transplantation, tumor establishment was confirmed using an IVIS imaging system (Xenogen Corp., Alameda, CA, USA). In the in-vivo imaging, 100 μl of VivoGlo luciferin (30 mg/ml) was administered via the tail vein, and bioluminescence imaging was recorded 5 minutes after the administration. Mice with established tumors were then divided into two groups, a control ASO inhalation group (n=7) and an ARL4C ASO inhalation group (n=9) in such a manner that the groups had identical IVIS signal intensities. […] When 21 days elapsed after the tumor transplantation, tumor sizes were determined using the IVIS imaging system, and then the mice were euthanized for histological analysis. […]
In an experiment in a xenograft orthotopic transplantation model using lung cancer cells, A549/Luc cells were transplanted into the left lung (day 0), and transbronchial administration of control ASO and ARL4C ASO-1316 was carried out when 7, 11 and 15 days had elapsed after the transplantation. […] In addition, when 7 and 21 days had elapsed since the transplantation, luminescence intensities of luciferase emitted from tumors in the left lungs in the mice were measured using software of IVIS/Kodak; the results are shown in the right part of (a) of FIG. 11. […]

Substance: ASO-1316: 15-mer AmNA/phosphorothioate ASO targeting ARL4C, base sequence SEQ ID NO: 1 gcatacctcaggtaa; Table 1 SEQ ID NO 13 (antisense GCATACCTCAGGTAA; AmNA and phosphorothioate modified, pattern not given here)
- cancer metastasis to mesenteric lymph nodes [1]: could suppress cancer metastasis to mesenteric lymph nodes
- proliferation of A549/Luc cells in left lung (luciferase luminescence intensity) ([2]; 200 μg/body transbronchially on days 7, 11 and 15, days 7 and 21): inhibited A549/Luc cells from proliferating
- Ki-67-positive cells in left lung tumor ([2]; day 21): Ki-67-positive cells decreased in number
- expression of ARL4C in left lung tumor (immunostaining) ([2]; day 21): decreased expression of ARL4C
